Blank lines part the entries; values can stand above or below the compound they belong to.
Tests used:
[1] = target: cGMP-dependent protein kinase 1 (Homo sapiens, UniProt Q13976); assay: Inhibition of PRKG1
[2] = target: Rho-associated protein kinase 2 (Homo sapiens, UniProt O75116)
Description: Inhibition of human ROCK2 by homogenous luciferase assay

[3] = target: Serine/threonine-protein kinase Sgk1 (Homo sapiens) (UniProt O00141); assay: Inhibition of SGK at 3 uM relative to control; values are per cent of control
[4] = target: Proto-oncogene tyrosine-protein kinase Src (Homo sapiens) (UniProt P12931); assay: Inhibition of SRC at 3 uM relative to control; values are per cent of control
[5] = target: Serine/threonine-protein kinase Chk1 (Homo sapiens) (UniProt O14757); assay: Inhibition of CHK1 at 3 uM relative to control; values are per cent of control
Sequence of Serine/threonine-protein kinase Chk1 (Homo sapiens) (O14757 whole entry): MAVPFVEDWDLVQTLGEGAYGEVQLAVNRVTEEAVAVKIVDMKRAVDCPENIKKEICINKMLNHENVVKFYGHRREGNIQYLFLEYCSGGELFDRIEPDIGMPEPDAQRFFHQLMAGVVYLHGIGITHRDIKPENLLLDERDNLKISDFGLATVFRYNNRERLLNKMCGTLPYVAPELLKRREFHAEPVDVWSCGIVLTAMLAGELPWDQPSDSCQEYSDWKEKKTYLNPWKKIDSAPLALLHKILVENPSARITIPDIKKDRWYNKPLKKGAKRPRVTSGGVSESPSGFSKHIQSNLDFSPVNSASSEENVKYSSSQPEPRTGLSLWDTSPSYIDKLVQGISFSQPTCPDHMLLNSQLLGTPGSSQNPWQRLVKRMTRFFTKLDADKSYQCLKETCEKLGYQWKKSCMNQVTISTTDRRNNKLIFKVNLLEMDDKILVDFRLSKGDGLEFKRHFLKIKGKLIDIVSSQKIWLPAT

[6] = target: Serine/threonine-protein kinase Chk2 (Homo sapiens) (UniProt O96017); assay: Inhibition of CHK2 at 3 uM relative to control; values are per cent of control
Sequence of Serine/threonine-protein kinase Chk2 (Homo sapiens) (O96017 whole entry): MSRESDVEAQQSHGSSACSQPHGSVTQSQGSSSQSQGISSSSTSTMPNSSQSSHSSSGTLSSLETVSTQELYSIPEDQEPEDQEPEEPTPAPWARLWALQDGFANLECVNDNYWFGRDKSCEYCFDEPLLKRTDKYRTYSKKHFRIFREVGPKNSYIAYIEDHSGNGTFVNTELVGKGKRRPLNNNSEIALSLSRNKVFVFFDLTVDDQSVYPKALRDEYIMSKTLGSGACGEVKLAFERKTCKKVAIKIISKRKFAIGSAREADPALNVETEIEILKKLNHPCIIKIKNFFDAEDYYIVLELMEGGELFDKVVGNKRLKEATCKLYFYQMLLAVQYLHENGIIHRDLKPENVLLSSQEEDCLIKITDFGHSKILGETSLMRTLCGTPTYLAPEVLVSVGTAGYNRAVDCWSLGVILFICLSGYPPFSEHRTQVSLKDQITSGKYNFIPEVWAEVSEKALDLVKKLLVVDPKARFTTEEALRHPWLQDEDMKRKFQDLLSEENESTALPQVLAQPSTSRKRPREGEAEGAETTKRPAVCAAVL

[7] = target: Dual specificity mitogen-activated protein kinase kinase 1 (Homo sapiens) (UniProt Q02750); assay: Inhibition of MKK1 at 3 uM relative to control; values are per cent of control
Sequence of Dual specificity mitogen-activated protein kinase kinase 1 (Homo sapiens) (Q02750 whole entry): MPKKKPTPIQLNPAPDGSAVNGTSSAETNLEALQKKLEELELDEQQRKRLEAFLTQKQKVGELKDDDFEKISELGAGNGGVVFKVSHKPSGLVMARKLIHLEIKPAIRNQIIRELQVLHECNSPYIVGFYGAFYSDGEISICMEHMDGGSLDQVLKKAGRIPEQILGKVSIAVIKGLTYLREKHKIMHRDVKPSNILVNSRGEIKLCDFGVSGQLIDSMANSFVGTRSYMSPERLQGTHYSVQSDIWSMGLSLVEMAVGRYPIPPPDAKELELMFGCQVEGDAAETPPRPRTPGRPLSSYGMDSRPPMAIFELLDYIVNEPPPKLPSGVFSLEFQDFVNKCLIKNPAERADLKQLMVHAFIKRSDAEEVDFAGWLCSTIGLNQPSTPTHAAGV

[8] = target: Ribosomal protein S6 kinase alpha-5 (Homo sapiens) (UniProt O75582); assay: Inhibition of MSK1 at 3 uM relative to control; values are per cent of control
[9] = target: [Pyruvate dehydrogenase (acetyl-transferring)] kinase isozyme 1, mitochondrial (Homo sapiens) (UniProt Q15118); assay: Inhibition of PDK1 at 3 uM relative to control; values are per cent of control
[10] = target: Serine/threonine-protein kinase pim-2 (Homo sapiens, UniProt Q9P1W9); assay: Inhibition of PIM2 at 3 uM relative to control; values are per cent of control
Sequence of Serine/threonine-protein kinase pim-2 (Q9P1W9 whole entry, looked up): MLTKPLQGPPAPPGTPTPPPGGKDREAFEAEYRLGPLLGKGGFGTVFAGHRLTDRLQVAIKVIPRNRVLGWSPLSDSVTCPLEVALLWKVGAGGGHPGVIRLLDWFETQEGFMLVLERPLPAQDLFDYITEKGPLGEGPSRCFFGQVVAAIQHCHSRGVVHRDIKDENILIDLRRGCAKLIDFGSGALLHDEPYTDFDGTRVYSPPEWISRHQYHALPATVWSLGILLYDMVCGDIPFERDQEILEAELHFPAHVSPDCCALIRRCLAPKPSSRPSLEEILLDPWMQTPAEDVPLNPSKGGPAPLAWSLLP

[11] = Inhibition of PKBD at 3 uM relative to control; values are per cent of control
[12] = target: Serine/threonine-protein kinase D1 (Homo sapiens) (UniProt Q15139); assay: Inhibition of PKD1 at 3 uM relative to control; values are per cent of control
[13] = target: Calcium/calmodulin-dependent protein kinase type 1 (Homo sapiens) (UniProt Q14012); assay: Inhibition of CAMK1 at 3 uM relative to control; values are per cent of control
Sequence of Calcium/calmodulin-dependent protein kinase type 1 (Homo sapiens) (Q14012 whole entry, looked up): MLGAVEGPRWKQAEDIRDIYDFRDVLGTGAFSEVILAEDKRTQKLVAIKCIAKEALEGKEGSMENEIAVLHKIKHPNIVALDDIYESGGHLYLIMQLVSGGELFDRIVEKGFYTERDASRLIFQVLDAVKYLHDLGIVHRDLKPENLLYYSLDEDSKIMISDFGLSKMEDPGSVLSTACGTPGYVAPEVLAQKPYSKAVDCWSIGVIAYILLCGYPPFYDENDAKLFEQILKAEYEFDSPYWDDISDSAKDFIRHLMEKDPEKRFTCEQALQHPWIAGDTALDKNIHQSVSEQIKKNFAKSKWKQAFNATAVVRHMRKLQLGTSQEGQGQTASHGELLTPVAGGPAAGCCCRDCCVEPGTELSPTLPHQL

[14] = target: Mitogen-activated protein kinase 8 (Homo sapiens) (UniProt P45983); assay: Inhibition of JNK1a1 at 3 uM relative to control; values are per cent of control
[15] = target: Mitogen-activated protein kinase 10 (Homo sapiens) (UniProt P53779); assay: Inhibition of JNK3a1 at 3 uM relative to control; values are per cent of control
Sequence of Mitogen-activated protein kinase 10 (Homo sapiens) (P53779 whole entry): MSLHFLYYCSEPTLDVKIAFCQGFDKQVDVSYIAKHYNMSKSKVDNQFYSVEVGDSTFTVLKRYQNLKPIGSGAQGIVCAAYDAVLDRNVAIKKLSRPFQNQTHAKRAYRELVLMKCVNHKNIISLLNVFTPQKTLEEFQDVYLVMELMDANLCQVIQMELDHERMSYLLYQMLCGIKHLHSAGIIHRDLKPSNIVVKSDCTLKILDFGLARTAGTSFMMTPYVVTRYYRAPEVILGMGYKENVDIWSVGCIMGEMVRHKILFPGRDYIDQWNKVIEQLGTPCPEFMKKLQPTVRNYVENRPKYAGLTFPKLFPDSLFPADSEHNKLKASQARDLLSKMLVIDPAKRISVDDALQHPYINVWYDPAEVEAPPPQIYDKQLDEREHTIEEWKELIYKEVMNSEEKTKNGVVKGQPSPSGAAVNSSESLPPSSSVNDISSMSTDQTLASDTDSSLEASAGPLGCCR

[16] = Inhibition of SAPK2a at 3 uM relative to control; values are per cent of control
[17] = target: RAC-beta serine/threonine-protein kinase (Homo sapiens) (UniProt P31751); assay: Inhibition of PKBbeta at 3 uM relative to control; values are per cent of control
[18] = target: Mitogen-activated protein kinase kinase kinase 11 (Homo sapiens, UniProt Q16584); assay: Inhibition of MAP3K11
[19] = target: Vascular endothelial growth factor receptor 1 (Homo sapiens, UniProt P17948); assay: Inhibition of VEGFR1
[20] = target: Protein kinase C delta type (Homo sapiens, UniProt Q05655); assay: Inhibition of PRKCD
[21] = tested on: Caco-2; assay: Permeability from apical to basolateral side in human Caco-2 cells; assay type: ADME, cell-based; conditions: caco-2, BLD = below limit of detection
[22] = target: Cytochrome P450 2C9 (Homo sapiens, UniProt P11712); assay: Inhibition of human CYP2C9 by fluorescence assay; assay type: ADME
[23] = target: Cytochrome P450 3A4 (Homo sapiens, UniProt P08684); assay: Inhibition of human CYP3A4 by LCMS/MS assay; assay type: ADME
[24] = target: MAP/microtubule affinity-regulating kinase 3 (Homo sapiens) (UniProt P27448); conditions: 3 to 6 uM
Description: Inhibition of MARK3 at 3 to 6 uM relative to control

[25] = target: Dual specificity mitogen-activated protein kinase kinase 1 (Homo sapiens) (UniProt Q02750); conditions: 3 to 6 uM
Description: Inhibition of MKK1 at 3 to 6 uM relative to control

[26] = target: MAP kinase-interacting serine/threonine-protein kinase 1 (Homo sapiens) (UniProt Q9BUB5); conditions: 3 to 6 uM
Description: Inhibition of MNK1 at 3 to 6 uM relative to control

[27] = target: Serine/threonine-protein kinase Nek2 (Homo sapiens) (UniProt P51955); conditions: 3 to 6 uM
Description: Inhibition of NEK2a at 3 to 6 uM relative to control

[28] = target: Mitogen-activated protein kinase kinase kinase 14 (Homo sapiens) (UniProt Q99558); conditions: 3 to 6 uM
Description: Inhibition of NIK at 3 to 6 uM relative to control

[29] = target: MAP kinase-activated protein kinase 5 (Homo sapiens) (UniProt Q8IW41); conditions: 3 to 6 uM
Description: Inhibition of PRAK at 3 to 6 uM relative to control

[30] = target: Aurora kinase B (Homo sapiens) (UniProt Q96GD4); conditions: 3 to 6 uM
Sequence of Aurora kinase B (Homo sapiens) (Q96GD4 whole entry): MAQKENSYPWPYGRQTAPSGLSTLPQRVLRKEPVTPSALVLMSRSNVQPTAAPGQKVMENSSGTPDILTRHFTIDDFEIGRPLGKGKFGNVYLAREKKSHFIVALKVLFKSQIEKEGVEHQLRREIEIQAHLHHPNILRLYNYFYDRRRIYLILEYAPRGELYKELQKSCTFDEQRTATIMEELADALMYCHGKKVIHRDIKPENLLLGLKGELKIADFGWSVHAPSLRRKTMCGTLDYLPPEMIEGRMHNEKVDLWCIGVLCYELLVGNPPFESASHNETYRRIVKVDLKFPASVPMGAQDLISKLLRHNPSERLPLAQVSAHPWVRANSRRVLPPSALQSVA
Description: Inhibition of Aurora B at 3 to 6 uM relative to control

[31] = target: Calcium/calmodulin-dependent protein kinase type 1 (Homo sapiens) (UniProt Q14012); conditions: 3 to 6 uM
Description: Inhibition of CAMK1 at 3 to 6 uM relative to control

[32] = target: Cyclin-dependent kinase 2 (Homo sapiens) (UniProt P24941); conditions: 3 to 6 uM
Description: Inhibition of CDK2 at 3 to 6 uM relative to control

[33] = target: Serine/threonine-protein kinase Chk1 (Homo sapiens) (UniProt O14757); conditions: 3 to 6 uM
Description: Inhibition of CHK1 at 3 to 6 uM relative to control

[34] = target: Serine/threonine-protein kinase Chk2 (Homo sapiens) (UniProt O96017); conditions: 3 to 6 uM
Description: Inhibition of CHK2 at 3 to 6 uM relative to control

[35] = target: Death-associated protein kinase 1 (Homo sapiens) (UniProt P53355); conditions: 3 to 6 uM
Description: Inhibition of DAPK1 at 3 to 6 uM relative to control

[36] = target: Myotonin-protein kinase (Homo sapiens) (UniProt Q09013); conditions: 3 to 6 uM
Description: Inhibition of DMPK at 3 to 6 uM relative to control

[37] = target: Dual specificity tyrosine-phosphorylation-regulated kinase 1A (Homo sapiens) (UniProt Q13627); conditions: 3 to 6 uM
Description: Inhibition of DYRK1A at 3 to 6 uM relative to control

[38] = target: Insulin-like growth factor 1 receptor (Homo sapiens) (UniProt P08069); conditions: 3 to 6 uM
Description: Inhibition of IGF1R at 3 to 6 uM relative to control

[39] = target: Inhibitor of nuclear factor kappa-B kinase subunit epsilon (Homo sapiens) (UniProt Q14164); conditions: 3 to 6 uM
Description: Inhibition of IKKE at 3 to 6 uM relative to control

[40] = target: Mitogen-activated protein kinase 10 (Homo sapiens) (UniProt P53779); conditions: 3 to 6 uM
Description: Inhibition of JNK3a1 at 3 to 6 uM relative to control

Sequence of Rho-associated protein kinase 2 (O75116 whole entry): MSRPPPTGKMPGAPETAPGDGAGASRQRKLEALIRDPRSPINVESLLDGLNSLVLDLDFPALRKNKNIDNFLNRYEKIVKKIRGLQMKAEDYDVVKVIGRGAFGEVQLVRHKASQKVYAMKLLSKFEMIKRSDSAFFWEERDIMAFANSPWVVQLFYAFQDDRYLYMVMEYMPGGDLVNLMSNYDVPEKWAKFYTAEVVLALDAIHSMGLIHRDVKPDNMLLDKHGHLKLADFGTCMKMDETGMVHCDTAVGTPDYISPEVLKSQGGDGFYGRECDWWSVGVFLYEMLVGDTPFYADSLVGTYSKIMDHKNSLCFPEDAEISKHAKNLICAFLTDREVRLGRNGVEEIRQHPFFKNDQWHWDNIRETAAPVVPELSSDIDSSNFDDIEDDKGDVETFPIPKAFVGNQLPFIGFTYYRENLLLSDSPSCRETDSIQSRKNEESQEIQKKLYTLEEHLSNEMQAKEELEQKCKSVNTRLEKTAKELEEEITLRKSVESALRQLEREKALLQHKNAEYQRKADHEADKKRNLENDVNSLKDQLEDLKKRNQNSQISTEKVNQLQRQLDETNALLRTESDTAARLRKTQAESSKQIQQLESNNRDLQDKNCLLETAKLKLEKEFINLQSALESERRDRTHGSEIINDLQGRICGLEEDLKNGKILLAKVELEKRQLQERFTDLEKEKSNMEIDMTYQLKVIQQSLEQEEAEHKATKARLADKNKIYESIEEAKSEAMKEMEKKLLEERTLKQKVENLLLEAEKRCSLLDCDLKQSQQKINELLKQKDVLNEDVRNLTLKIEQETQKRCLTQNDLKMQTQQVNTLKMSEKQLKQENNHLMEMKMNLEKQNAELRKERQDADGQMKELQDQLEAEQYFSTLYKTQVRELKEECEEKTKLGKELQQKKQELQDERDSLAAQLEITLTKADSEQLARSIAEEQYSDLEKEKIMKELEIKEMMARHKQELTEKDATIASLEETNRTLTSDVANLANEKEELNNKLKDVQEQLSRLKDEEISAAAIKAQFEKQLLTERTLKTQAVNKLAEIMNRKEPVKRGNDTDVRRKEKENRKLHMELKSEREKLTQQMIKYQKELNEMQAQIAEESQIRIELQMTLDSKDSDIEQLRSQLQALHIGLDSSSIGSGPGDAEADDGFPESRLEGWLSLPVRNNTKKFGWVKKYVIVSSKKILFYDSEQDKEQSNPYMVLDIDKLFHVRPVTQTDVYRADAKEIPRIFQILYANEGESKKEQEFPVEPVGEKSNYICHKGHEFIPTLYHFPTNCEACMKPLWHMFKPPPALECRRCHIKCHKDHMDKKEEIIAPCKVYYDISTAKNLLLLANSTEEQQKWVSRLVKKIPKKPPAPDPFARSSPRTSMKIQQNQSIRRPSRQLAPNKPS
Sequence of cGMP-dependent protein kinase 1 (Q13976 whole entry): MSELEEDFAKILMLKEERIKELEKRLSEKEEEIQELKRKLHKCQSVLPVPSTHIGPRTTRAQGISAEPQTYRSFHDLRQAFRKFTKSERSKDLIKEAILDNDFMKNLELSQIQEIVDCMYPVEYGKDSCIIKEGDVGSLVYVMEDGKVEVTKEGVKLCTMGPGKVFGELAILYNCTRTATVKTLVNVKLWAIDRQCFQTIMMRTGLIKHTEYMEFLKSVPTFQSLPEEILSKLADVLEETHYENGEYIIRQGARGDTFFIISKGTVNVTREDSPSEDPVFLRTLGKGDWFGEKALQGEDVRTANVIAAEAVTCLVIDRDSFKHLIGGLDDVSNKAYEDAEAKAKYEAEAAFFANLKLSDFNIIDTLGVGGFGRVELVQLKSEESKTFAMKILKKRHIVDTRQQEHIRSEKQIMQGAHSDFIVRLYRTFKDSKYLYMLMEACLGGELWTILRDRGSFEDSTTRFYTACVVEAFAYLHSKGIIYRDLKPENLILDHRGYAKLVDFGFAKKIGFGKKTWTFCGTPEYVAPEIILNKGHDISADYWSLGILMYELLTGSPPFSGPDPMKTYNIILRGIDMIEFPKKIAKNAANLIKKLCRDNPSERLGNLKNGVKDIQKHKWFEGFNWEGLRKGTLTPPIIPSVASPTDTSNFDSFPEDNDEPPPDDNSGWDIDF

IC50 [1]: 3 µM
IC50 [2]: 4 nM
residual activity [3]: > 50%
residual activity [4]: > 50%
residual activity [5]: > 50%
residual activity [6]: > 50%
residual activity [7]: > 50%
residual activity [8]: > 50%
residual activity [9]: > 50%
residual activity [10]: > 50%
residual activity [11]: > 50%
residual activity [12]: > 50%
residual activity [13]: > 50%
residual activity [14]: > 50%
residual activity [15]: > 50%
residual activity [16]: > 50%
residual activity [17]: > 50%
Structure (SMILES): NC(=O)c1ccc(NC(=O)NCc2cccc(C(=O)Nc3ccc4c(c3)CNCC4)c2)cc1

IC50 [18]: > 10 µM
IC50 [19]: > 10 µM
IC50 [20]: > 10 µM
IC50 [1]: 5.6 µM
permeability [21]: BLD
IC50 [22]: > 30 µM
IC50 [23]: > 30 µM
IC50 [2]: 33 nM
residual activity [24]: > 50%
residual activity [25]: > 50%
residual activity [26]: > 50%
residual activity [27]: > 50%
residual activity [28]: > 50%
residual activity [29]: > 50%
residual activity [30]: > 50%
residual activity [31]: > 50%
residual activity [32]: > 50%
residual activity [33]: > 50%
residual activity [34]: > 50%
residual activity [36]: > 50%
residual activity [37]: > 50%
residual activity [38]: > 50%
residual activity [39]: > 50%
residual activity [40]: > 50%
Structure (SMILES): COc1ccc(C(=O)NCc2cccc(C(=O)Nc3ccc4c(c3)CNCC4)c2)cc1OC
residual activity [35]: > 50%

From ChEMBL document CHEMBL1157712, “Hit to lead account of the discovery of bisbenzamide and related ureidobenzamide inhibitors of Rho kinase” (J Med Chem, 2010)
